Data taken from patent publication US20250381165A1, “Method of Use for Benzofuran Compounds” (Tampa Bay Research Institute, Inc., priority 2024, published 2025).
“Also recorded” adds a separate entry of the source.

Tests used:
H-2Db on DC2.4 = target: T1, H-2Db on DC2.4 (Mus musculus, UniProt P01899); assay: FITC-labeled HPV peptide RAHYNIVTF binding to DC2.4; format: cell-based, murine; conditions: 25 µg/mL BzFβ 4 or 24 h, 1 h pulse
T1 construct: DC2.4 are a C57Bl/6 lineage murine cell line and as such they express MHC class I H-2Kb and H-2Db; endogenous in cells; host or cells: DC2.4
T1 sequence (P01899 25-362): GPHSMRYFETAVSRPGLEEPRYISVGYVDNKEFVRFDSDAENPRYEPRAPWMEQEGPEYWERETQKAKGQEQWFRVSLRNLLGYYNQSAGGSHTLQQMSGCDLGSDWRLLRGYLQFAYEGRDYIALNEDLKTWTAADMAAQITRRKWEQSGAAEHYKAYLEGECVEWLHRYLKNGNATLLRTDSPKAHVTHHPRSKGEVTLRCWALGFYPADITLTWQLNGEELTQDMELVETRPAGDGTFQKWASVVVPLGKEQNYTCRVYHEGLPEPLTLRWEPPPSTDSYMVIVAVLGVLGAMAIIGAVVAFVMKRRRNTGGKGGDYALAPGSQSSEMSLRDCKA
T1 sequence (P01887 21-119 partner): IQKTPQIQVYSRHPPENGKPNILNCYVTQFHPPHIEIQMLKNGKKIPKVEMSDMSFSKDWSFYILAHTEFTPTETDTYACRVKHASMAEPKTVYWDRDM
Procedure: For peptide loading studies, cultured cells were treated for various times as indicated in results and figure legends. Cells were centrifuged and washed using cold FACS buffer (DPBS with 5% FBS, 2 mM EDTA, 0.1% sodium azide). Cells were blocked using Fc block (bioLegend™; cat. no. 101320) for 10 min to 15 min to inhibit non-specific binding, followed by staining with fluorophore-conjugated antibody PE-labeled anti-MHC I/SIINFEKL (clone 25-D1.16, Invitrogen 12-5743-82), for 30 min at 4° C. For N-terminal FITC labeled H-2Db peptide RAHYNIVTF (AnaSpec Inc., Fremont, CA; cat. no.) cells were incubated with peptide for 1-4 h before washing and analysis. After washing, the cells were subjected to flow cytometric analysis with the Attune NxT Flow Cytometer (Invitrogen™). Cells were gated based on live single-cell populations and positives were assessed using isotype controls and fluor-minus-one analysis when needed. Data were analyzed using the Attune NxT software or FlowJo versions 10.7 and 10.8.
Cells were cultured as previously described and treated for various times as indicated in results and figure legends. […] Cells were gated based on live single-cell populations and positives were assessed using isotype controls and fluor-minus-one analysis when needed. Data were analyzed using the Attune NxT software or FlowJo versions 10.7 and 10.8. […]

[1] = tested on: murine splenocytes (B3Z activation); assay: B3Z activation by murine splenocytes (OVA or SIINFEKL); format: cell-based
Procedure: Murine splenocytes were plated at a density of 2.5 or 5×10^4 cells/well (100 μL/well in 96 well plates) and cultured overnight in cRPMI. The cells were washed with DPBS and then treated for 1-24 h with the indicated concentrations of BzFβ or co-treated with the indicated concentrations of BzFβ and 0.5 mg/mL OVA, suspended in complete media. Cells treated with BzFβ only were pulsed with 0.5 nM SIINFEKL pulsed for 1 h. The cells were then co-cultured with equal number of B3Z cells at 37° C. for 19 h.

[2] = In vivo toxicity after gavage, iv or im injection
Procedure: Six- to ten-week-old male and female C57BL/6NCrl mice (cat. no. 027, Charles River Laboratories, Wilmington MA) were used for all animal studies. The mice were maintained in accord with the NIH Guide for the Care and Use of Laboratory Animals. Experimental procedures were performed in accord with research protocols approved by the Tampa Bay Research Institute's Institutional Animal Care and Use Committee. Mice were maintained in an INOVIVE individually ventilated cage system with 3 mice per cage containing 100% virgin wood pulp bedding (Harlan Teklad™, Harlan Sprague Dawley Inc., Indianapolis, IA; cat. no. 7099). Water and food (Harland Teklad™; cat. no. 8640) were available ad libitum. The mice were maintained on a cycle of 12 h of light and 12 h of dark in an environment with a temperature of 74-76° […]. and 40-60% humidity. All cages underwent 40 air changes hourly in the negative pressure mode, in accordance with manufacturer's recommendations. Both the intake and exhaust air from the system were filtered through HEPA filters to maintain a clean environment. […]
Mice were gavaged with BzFβ at doses ranging from 25 mg/kg body to 100 mg/kg body weight, injected intravenously (iv) with 50 μg BzFβ or injected intramuscularly with BzFβ at 25 to 40 mg/kg body weight. For two weeks post-treatment, water intake and weight were monitored. […]

H-2Kb on DC2.4 = target: T2, H-2Kb on DC2.4 (Mus musculus, UniProt P01901); assay: FITC-labeled Trp2 peptide binding to DC2.4; format: cell-based, murine; conditions: 50 μg/mL BzFβ 1 h, 1 h pulse 0-1000 nM peptide
T2 construct: DC2.4 are a C57Bl/6 lineage murine cell line and as such they express MHC class I H-2Kb and H-2Db; endogenous in cells; host or cells: DC2.4
T2 sequence (P01901 22-369): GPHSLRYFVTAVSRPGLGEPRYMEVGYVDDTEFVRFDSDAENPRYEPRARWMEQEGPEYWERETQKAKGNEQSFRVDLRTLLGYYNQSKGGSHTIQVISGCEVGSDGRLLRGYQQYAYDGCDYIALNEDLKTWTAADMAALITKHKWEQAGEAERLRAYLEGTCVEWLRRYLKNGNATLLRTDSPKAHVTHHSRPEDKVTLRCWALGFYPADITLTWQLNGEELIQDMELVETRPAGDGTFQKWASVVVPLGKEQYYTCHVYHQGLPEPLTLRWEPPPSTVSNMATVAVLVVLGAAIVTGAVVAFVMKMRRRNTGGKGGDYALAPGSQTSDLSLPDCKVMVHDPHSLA
T2 sequence (P01887 21-119 partner): as the sequence (P01887 21-119 partner) above
Procedure: Cells were cultured as previously described and treated for various times as indicated in results and figure legends. Cells were centrifuged and washed using cold FACS buffer (DPBS with 5% FBS, 2 mM EDTA, 0.1% sodium azide). Cells were stained with N-terminal fluorophore-conjugated […] FITC labeled Trp2180-188 peptide ([…]) and N-terminal FITC labeled H-2Db peptide […] (Anaspec) cells were incubated with Fc block (bioLegend™; cat. no. 101320) for 10 min to 15 min to inhibit non-specific binding, followed by peptide for 1-4 h, before washing and analysis. After washing, the cells were subjected to flow cytometric analysis with the Attune NxT Flow Cytometer (Invitrogen™). Cells were gated based on live single-cell populations and positives were assessed using isotype controls and fluor-minus-one analysis when needed. Data were analyzed using the Attune NxT software or FlowJo versions 10.7 and 10.8.
While H-2Kb is the dominant haplotype, BzFβ was investigated to determine if the compound could assist peptide binding on H-2Kb and H-2Db. […]

With O=C(O)/C=C/c1ccc2occc2c1 [BzFβ, (2E)-3-(1-benzofuran-5-yl)prop-2-enoic acid] the “binding of FITC labeled HPV peptide to H-2Db” value (H-2Db on DC2.4) was “enhance peptide binding on both haplotypes; also recorded: significant increase in peptide binding”, the “ability of splenocytes to activate B3Z, OVA” value ([1]; co-treatment 24 h, 0.5 mg/mL OVA) was “enhanced their ability to activate B3Z” and the “ability of splenocytes to activate B3Z, SIINFEKL” value ([1]; pre-treatment 24 h, then 0.5 nM SIINFEKL 1 h) was “also enhanced their ability to activate the B3Z”. For the same compound, the doses with significant enhancement of B3Z activation, OVA ([1]; splenocytes, 0.5 mg/mL OVA, p<0.0001) was over 6.25 µg/mL, the “doses with significant enhancement of B3Z activation, SIINFEKL” value ([1]; splenocytes, 24 h, 0.5 nM SIINFEKL 1 h, p<0.0001) was over 12.5 µg/mL and the in vivo toxicity ([2]; at the doses tested) was “non-toxic”. The “body and organ weights” value ([2]; gavage 25-100 mg/kg, iv 50 μg, im 25-40 mg/kg, two weeks) was “no differences were measured” and the “binding of FITC labeled Trp2 peptide to H-2Kb” value (H-2Kb on DC2.4) was “enhance peptide binding on both haplotypes; also recorded: enhancement of the direct binding”.
